Values joined by “and” are separate entries in the source; they are usually repeats but may differ in a detail not shown here. Identical values can stand only once.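 1) Cells in 96-well plates. 2) Compound, 48 h, 5 concentrations. 3) Linear interpolation between surrounding doses. 4) Unreached endpoint = highest concentration. Abbreviation: GI50, concentration required for 50% inhibition of growth. TGI: total growth inhibition.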
Columns and labels:
Assay in all cases: NCI-60 cell line screen, 48 h
UACC-62 melanoma = system: UACC-62 melanoma
MDA-MB-231 breast = system: MDA-MB-231 breast
RPMI-8226 leukemia = system: RPMI-8226 leukemia
CCRF-CEM leukemia = system: CCRF-CEM leukemia
SF-539 CNS = system: SF-539 CNS
SF-268 CNS = system: SF-268 CNS
TK-10 renal = system: TK-10 renal
MDA-N = system: MDA-N
HOP-92 NSCLC = system: HOP-92 NSCLC
SNB-75 CNS = system: SNB-75 CNS
MDA-MB-435 = system: MDA-MB-435
A549 NSCLC = system: A549 NSCLC
SK-MEL-2 melanoma = system: SK-MEL-2 melanoma
786-0 renal = system: 786-0 renal
NCI-H522 lung = system: NCI-H522 lung
EKVX NSCLC = system: EKVX NSCLC
SK-MEL-28 melanoma = system: SK-MEL-28 melanoma
NCI-H460 lung = system: NCI-H460 lung

| Structure (SMILES) | TGI (UACC-62 melanoma) | TGI (MDA-MB-231 breast) | TGI (RPMI-8226 leukemia) | TGI (CCRF-CEM leukemia) | TGI (SF-539 CNS) | TGI (SF-268 CNS) | TGI (TK-10 renal) | TGI (MDA-N) | TGI (HOP-92 NSCLC) | TGI (SNB-75 CNS) | TGI (MDA-MB-435) | TGI (A549 NSCLC) | TGI (SK-MEL-2 melanoma) | TGI (786-0 renal) | TGI (NCI-H522 lung) | TGI (EKVX NSCLC) | TGI (SK-MEL-28 melanoma) | TGI (NCI-H460 lung) | GI50 (MDA-MB-231 breast) | GI50 (HOP-92 NSCLC) |
| --- | --- | --- | --- | --- | --- | --- | --- | --- | --- | --- | --- | --- | --- | --- | --- | --- | --- | --- | --- | --- |
| CC(=O)C1(C)CC(C#N)(C#N)C(C#N)=C1N (stereo not given) | > 100 µM | > 100 µM | > 100 µM | > 100 µM | > 100 µM | > 100 µM | > 100 µM | > 100 µM | 55.3 µM | > 100 µM | > 100 µM | > 100 µM | > 100 µM | > 100 µM | > 100 µM | 85.2 µM | – | – | – | – |
| COc1cc(C(C[N+](=O)[O-])SC(C)=O)ccc1OCc1ccccc1 (stereo not given) | 8.68 µM | 13.3 µM | 4.61 µM | > 100 µM | 4.87 µM | > 100 µM | 14.7 µM | 8.54 µM | 36.2 µM | 32.4 µM | 10 µM | 25.4 µM | 23.4 µM | 3.74 µM | 13.9 µM | 37.9 µM | 6.79 µM | 25.1 µM | – | – |
| COC1CC(C)([N+](=O)[O-])C(O)C(C)O1 (stereo not given) | > 100 µM | > 100 µM | > 100 µM | > 100 µM | > 100 µM | > 100 µM | > 100 µM | > 100 µM | > 100 µM | > 100 µM | > 100 µM | > 100 µM | > 100 µM | > 100 µM | > 100 µM | > 100 µM | > 100 µM | > 100 µM | – | – |
| NC(=O)NNCc1c(-c2ccccc2)no[n+]1[O-] | > 100 µM | > 100 µM | > 100 µM | > 100 µM | > 100 µM | > 100 µM | > 100 µM | > 100 µM | > 100 µM | > 100 µM | > 100 µM | > 100 µM | > 100 µM | > 100 µM | > 100 µM | > 100 µM | > 100 µM | > 100 µM | – | – |
| COc1cc(C2c3[nH]c4ccccc4c3[C@@H](Nc3ccc(C#N)cc3)[C@H]3COC(=O)N23)cc(OC)c1O (stereo not given in full) | 0.651 µM | 2.14 µM | 0.688 µM | 0.404 µM | 0.208 µM | 0.909 µM | 0.866 µM | 1.57 µM | > 4.61 µM | 0.763 µM | 2.19 µM | 0.421 µM | 0.752 µM | 0.337 µM | 0.547 µM | 4.32 µM | 2.73 µM | 0.342 µM | – | – |
| Cc1cc(S(=O)(=O)Nc2n[nH]c(Nc3ccc4ccccc4c3)n2)c(S)cc1Cl | > 100 µM | > 100 µM | > 100 µM | > 100 µM | 35.1 µM | > 100 µM | > 100 µM | 39 µM | > 100 µM | > 100 µM | 84.2 µM | > 100 µM | 73.7 µM | > 100 µM | 84.2 µM | > 100 µM | > 100 µM | > 100 µM | – | – |
| CC(=O)Oc1c(OC(C)C)c(C)c(O[Si](C(C)C)(C(C)C)C(C)C)c2[nH]c3ccccc3c12 | > 100 µM | > 100 µM | > 100 µM | > 100 µM | > 100 µM | > 100 µM | > 100 µM | > 100 µM | > 100 µM | > 100 µM | > 100 µM | > 100 µM | > 100 µM | > 100 µM | > 100 µM | > 100 µM | > 100 µM | > 100 µM | – | – |
| NC(=O)C(=CNC(=S)Nc1ccc(S(=O)(=O)Nc2ccccn2)cc1)C(N)=O | > 100 µM | > 100 µM | > 100 µM | > 100 µM | > 100 µM | > 100 µM | > 100 µM | > 100 µM | > 100 µM | > 100 µM | > 100 µM | > 100 µM | > 100 µM | > 100 µM | > 100 µM | > 100 µM | > 100 µM | > 100 µM | – | – |
| CC1OC(OC2C(OC(=O)[C@]34CCC(C)(C)C[C@H]3C3=CC[C@@H]5[C@@]6(C)CC[C@H](OC7OC(CO)C(O)C(O)C7OC7OC(CO)C(O)C(O)C7O)C(C)(C)[C@@H]6CC[C@@]5(C)[C@]3(C)CC4)OCC(O)C2O)C(O)C(O)C1OC1OCC(O)C(OC2OCC(O)C(O)C2O)C1O (stereo not given in full) | 6.58 µM and 4.71 µM | 8.71 µM and 9.09 µM | 16.1 µM and 17.4 µM | 30 µM and 31.6 µM | 42.7 µM and > 100 µM | 38.7 µM and 20.5 µM | 21.1 µM and 21.8 µM | 3.58 µM and 3.09 µM | 5.81 µM and 4.97 µM | 17 µM and 20.8 µM | 3.59 µM and 3.22 µM | 10.2 µM and 9.72 µM | 8.07 µM and 8.23 µM | 18.9 µM and 19.7 µM | 7.68 µM and 6.53 µM | 8.6 µM and 7.32 µM | 3.9 µM and 3.82 µM | 31.9 µM and 40.5 µM | – | – |
| CC(=O)OCC1OC(n2c(N)c(C#N)c(C)c(C#N)c2=S)C(OC(C)=O)C(OC(C)=O)C1OC(C)=O (stereo not given) | > 100 µM | > 100 µM | > 100 µM | > 100 µM | > 100 µM | > 100 µM | > 100 µM | > 100 µM | > 100 µM | > 100 µM | > 100 µM | > 100 µM | > 100 µM | > 100 µM | > 100 µM | > 100 µM | > 100 µM | > 100 µM | 40 µM and > 100 µM | 43.8 µM and > 100 µM |
| CCN(CC)c1ccc2cc(C(=O)NCc3ccccc3)c(=N)oc2c1 | > 100 µM | 97 µM | > 59.7 µM | > 100 µM | > 100 µM | > 100 µM | > 100 µM | > 100 µM | > 100 µM | > 100 µM | > 100 µM | > 100 µM | > 100 µM | > 100 µM | 97.3 µM | > 100 µM | > 100 µM | > 100 µM | – | – |
| CN=C(N)N=Nc1c(O)[nH]c2ccccc12 | > 100 µM | > 100 µM | > 100 µM | > 100 µM | – | > 100 µM | > 100 µM | > 100 µM | > 100 µM | > 100 µM | > 100 µM | > 100 µM | > 100 µM | > 100 µM | > 100 µM | > 100 µM | > 100 µM | > 100 µM | – | – |
| NC(N)=NS(=O)(=O)c1ccc(NNC(=O)c2cccc3c(=O)c4ccccc4[nH]c23)cc1 | 88.9 µM | 95.2 µM | > 100 µM | > 100 µM | 58.7 µM | > 100 µM | 94 µM | 60.9 µM | 79.6 µM | > 100 µM | 57.5 µM | > 100 µM | 63.7 µM | > 100 µM | 46.1 µM | 62.2 µM | 65.9 µM | 49.1 µM | – | – |
| C=C1C(=O)O[C@H]2C/C(C)=C/CC[C@]3(C)CCC[C@](C)(CC[C@@H]12)O3 | 24.4 µM | 46.2 µM | 20 µM | 3.38 µM | 20.7 µM | 16.3 µM | 18.4 µM | > 50 µM | 15.2 µM | 43.6 µM | 15.6 µM | > 50 µM | 17.9 µM | 16.4 µM | 13 µM | 22.7 µM | 15.8 µM | 16.9 µM | – | – |
| O=[N+]([O-])c1ccc(C2=NOC(c3ccc(Cl)cc3)N2C23CC4CC(CC(C4)C2)C3)cc1 (stereo not given) | > 100 µM | > 100 µM | > 100 µM | > 100 µM | > 100 µM | > 100 µM | > 100 µM | > 100 µM | > 100 µM | > 100 µM | > 100 µM | > 100 µM | > 100 µM | > 100 µM | > 100 µM | > 100 µM | > 100 µM | > 100 µM | – | – |
| CCc1cc2c(c3c1CCCC3)CC1(Cc3ccc(C(=O)OC)cc3C1)C2 (stereo not given) | > 100 µM | > 100 µM | > 100 µM | 56 µM | > 100 µM | > 100 µM | > 100 µM | > 100 µM | > 100 µM | > 100 µM | > 100 µM | > 100 µM | > 100 µM | > 100 µM | > 100 µM | > 100 µM | > 100 µM | > 100 µM | – | – |
| CCCCCCNC(=S)N/N=C(\C)c1ccccn1 | 6.37 µM | 14.4 µM | 9.31 µM | – | 11.9 µM | 17.8 µM | 42 µM | 20.6 µM | 2.25 µM | 23.9 µM | 17.8 µM | 14.6 µM | 22.7 µM | 12.1 µM | 19.8 µM | 47.2 µM | 18.5 µM | 8.81 µM | – | – |
| CCN(CC)C(=S)SC1C(=O)NC(=O)NC1=O | > 100 µM | > 100 µM | > 100 µM | > 100 µM | > 100 µM | > 100 µM | > 100 µM | > 100 µM | > 100 µM | > 100 µM | > 100 µM | > 100 µM | > 100 µM | > 100 µM | > 100 µM | > 100 µM | > 100 µM | 12.7 µM | – | – |
| CN1N=C(c2ccccc2)C(C(c2ccccc2[N+](=O)[O-])C2C(=O)N(C)N=C2c2ccccc2)C1=O (stereo not given) | > 100 µM | > 100 µM | > 100 µM | 60.1 µM | > 100 µM | > 100 µM | > 100 µM | > 100 µM | > 100 µM | > 100 µM | > 100 µM | > 100 µM | > 100 µM | > 100 µM | > 100 µM | > 100 µM | > 100 µM | > 100 µM | – | – |

— PubChem BioAssay (NCI)
